Legend:
[1] = target: T1, Tyrosine-protein phosphatase non-receptor type 1 (Homo sapiens, UniProt P18031); experiment: Inhibition of human recombinant PTP1B assessed as inhibition of hydrolysis of […] after 10 mins by spectrophotometry
T1 sequence (P18031 whole entry): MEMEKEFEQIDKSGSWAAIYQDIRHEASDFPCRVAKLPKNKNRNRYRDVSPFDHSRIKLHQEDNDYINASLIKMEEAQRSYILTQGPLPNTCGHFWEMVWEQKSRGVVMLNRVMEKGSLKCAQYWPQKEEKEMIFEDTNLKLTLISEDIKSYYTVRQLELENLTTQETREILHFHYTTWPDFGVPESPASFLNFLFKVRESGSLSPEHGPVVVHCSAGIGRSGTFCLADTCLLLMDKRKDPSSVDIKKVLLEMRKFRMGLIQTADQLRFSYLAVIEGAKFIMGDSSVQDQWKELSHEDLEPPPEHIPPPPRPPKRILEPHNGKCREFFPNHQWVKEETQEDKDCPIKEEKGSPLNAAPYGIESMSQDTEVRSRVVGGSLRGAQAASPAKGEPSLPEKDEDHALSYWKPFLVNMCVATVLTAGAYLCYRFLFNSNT

[2] = target: T2, Tyrosine-protein phosphatase non-receptor type 2 (Homo sapiens, UniProt P17706); experiment: Inhibition of human recombinant TCPTP assessed as inhibition of hydrolysis of […] after 10 mins by spectrophotometry
T2 sequence (P17706 whole entry): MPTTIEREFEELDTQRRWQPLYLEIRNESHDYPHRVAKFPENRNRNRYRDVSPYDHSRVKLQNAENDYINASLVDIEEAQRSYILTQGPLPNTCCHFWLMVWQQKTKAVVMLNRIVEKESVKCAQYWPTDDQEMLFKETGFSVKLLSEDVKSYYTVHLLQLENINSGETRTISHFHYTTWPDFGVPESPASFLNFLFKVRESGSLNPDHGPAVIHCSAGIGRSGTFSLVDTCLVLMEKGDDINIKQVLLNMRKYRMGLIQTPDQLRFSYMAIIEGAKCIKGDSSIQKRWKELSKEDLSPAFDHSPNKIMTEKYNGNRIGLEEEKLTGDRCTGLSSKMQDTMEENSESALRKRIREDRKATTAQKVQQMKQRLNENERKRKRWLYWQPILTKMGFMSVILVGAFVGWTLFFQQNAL

[3] = organism: Homo sapiens; experiment: Selectivity ratio of IC50 for human recombinant TCPT to IC50 for human recombinant PTP1B
[4] = test system: COS-7; experiment: Cytotoxicity against african green monkey COS7 cells after 48 hrs by MTT assay; type: cell-based; details: Chlorocebus aethiops, COS-7, 48 h

| SMILES | IC50 [1] | IC50 [2] | Ratio IC50 [3] | IC50 [4] |
| --- | --- | --- | --- | --- |
| CCOS(=O)(=O)/C=C/c1ccc(OCCCCNc2nc(-c3cccs3)cs2)cc1 | 8.6 µM | 11.2 µM | 2 | – |
| CCOS(=O)(=O)/C=C/c1ccc(OCCCCNc2nc(-c3ccccc3)c(C)s2)c(OC)c1 | 15.1 µM | > 100 µM | – | – |
| CCOc1ccc(-c2cc(COc3ccc(/C=C/S(=O)(=O)OCC)cc3)no2)cc1 | 44.4 µM | > 100 µM | – | > 100 µM |
| CCOS(=O)(=O)/C=C/c1ccc(OCCCCNc2nc(-c3ccccc3)c(-c3ccccc3)s2)c(OC)c1 | 2.6 µM | 8.6 µM | – | – |
| COS(=O)(=O)/C=C/c1ccc(OCc2ccccc2)cc1OCCc1nc(-c2ccccc2)oc1C | 24.5 µM | 39.6 µM | – | > 100 µM |
| CCOS(=O)(=O)/C=C/c1ccc(OCCCCNc2nc(-c3cccc(OC)c3)cs2)cc1 | 2 µM | 8.2 µM | 2 | – |
| CCOS(=O)(=O)/C=C/c1ccc(OCc2ccccc2)cc1OCCc1nc(-c2ccccc2)sc1C | > 100 µM | > 100 µM | – | > 100 µM |
| CCOS(=O)(=O)/C=C/c1ccc(OCc2ccccc2)cc1OCCc1csc(-c2ccccc2)n1 | 38.4 µM | 41.2 µM | – | > 100 µM |
| CCOS(=O)(=O)/C=C/Cc1nc(-c2ccccc2)sc1C | > 100 µM | > 100 µM | – | > 100 µM |
| CCOS(=O)(=O)/C=C/c1ccc(OCCCCNc2nc(-c3ccccc3)c(-c3ccccc3)s2)cc1 | 9.6 µM | 23.4 µM | – | – |
| CCOS(=O)(=O)/C=C/c1ccc(OCCCCNc2nc(-c3ccc(OC)cc3)cs2)cc1 | 10.4 µM | > 100 µM | 2 | – |
| CCOS(=O)(=O)/C=C/c1ccc(OCCCCNc2nc(-c3ccccn3)cs2)cc1 | 1.5 µM | 31.9 µM | 2 | – |
| CCOS(=O)(=O)/C=C/c1ccc(OCc2ccccc2)cc1OCCc1nc(-c2ccccc2)oc1C | > 100 µM | > 100 µM | – | > 100 µM |
| CCOS(=O)(=O)/C=C/c1ccc(OCCCCNc2nc(-c3ccccc3)cs2)cc1 | 22 µM | 26.2 µM | – | > 100 µM |
| COC(=O)/C=C/c1ccc(/C=C/c2ccc(O)c(O)c2)cc1 | > 14.9 µM | – | – | – |
| CCOS(=O)(=O)/C=C/c1ccc(OC)c(OCCCCNc2nc(-c3ccccc3)c(C)s2)c1 | 9.7 µM | 15.6 µM | 2 | – |
| CCOS(=O)(=O)/C=C/c1ccc(OCCCCNc2nc(-c3ccccc3)c(C)s2)cc1 | 5.8 µM | 10.6 µM | – | – |

Continued, in another order:

| IC50 [1] | IC50 [2] | Ratio IC50 [3] | SMILES | IC50 [4] |
| --- | --- | --- | --- | --- |
| 1.3 µM | 3.6 µM | 2 | CCOS(=O)(=O)/C=C/c1ccc(OCCCCNc2nc(-c3ccc(Br)cc3)cs2)cc1 | – |
| > 100 µM | > 100 µM | – | CCCCOS(=O)(=O)/C=C/c1ccc(OCCc2nc(-c3ccccc3)oc2C)cc1 | > 100 µM |
| > 100 µM | > 100 µM | – | CCOS(=O)(=O)/C=C/c1ccc(OCCNc2nc(-c3ccccc3)cs2)cc1 | > 100 µM |
| 1.3 µM | 14.1 µM | 2 | CCOS(=O)(=O)/C=C/c1ccc(OCCCCNc2nc(-c3ccc(F)cc3)cs2)cc1 | – |
| 2.5 µM | 6.4 µM | 2 | CCOS(=O)(=O)/C=C/c1ccc(OCCCCNc2nc(-c3ccccc3F)cs2)cc1 | – |
| 5 µM | – | – | O=S(=O)(O)C(F)(F)c1ccc(-c2cccc(F)c2)cc1 | – |
| 5.1 µM | 11.6 µM | 2 | CCOS(=O)(=O)/C=C/c1ccc(OC)c(OCCCCNc2nc(-c3ccccc3)c(-c3ccccc3)s2)c1 | – |
| 3.3 µM | 5.7 µM | 2 | CCOS(=O)(=O)/C=C/c1ccc(OC)c(OCCCCNc2nc(-c3ccccc3)cs2)c1 | – |
| 2.4 µM | 8.7 µM | 2 | CCOS(=O)(=O)/C=C/c1ccc(OCCCCNc2nc(-c3cccc4ccccc34)cs2)cc1 | – |
| 1.4 µM | 5 µM | 2 | CCOS(=O)(=O)/C=C/c1ccc(OCCCCNc2nc(-c3ccccc3Cl)cs2)cc1 | – |
| > 100 µM | > 100 µM | – | CCCCOS(=O)(=O)/C=C/c1ccc(OCCc2csc(-c3ccccc3)n2)cc1 | > 100 µM |
| > 100 µM | > 100 µM | – | CCCCOS(=O)(=O)/C=C/c1ccc(OCc2ccccc2)cc1OCCc1nc(-c2ccccc2)oc1C | > 100 µM |
| 1.9 µM | 15.7 µM | 2 | CCOS(=O)(=O)/C=C/c1ccc(OCCCCNc2nc(-c3ccc(-c4ccccc4)cc3)cs2)cc1 | – |
| 24.8 µM | 29.5 µM | – | CCOS(=O)(=O)/C=C/c1ccc(OCCCNc2nc(-c3ccccc3)cs2)cc1 | > 100 µM |
| > 100 µM | > 100 µM | – | CCOS(=O)(=O)/C=C/c1ccc(OCc2cc(-c3ccccc3)on2)cc1 | > 100 µM |
| > 100 µM | > 100 µM | – | CCOS(=O)(=O)/C=C/c1ccc(OCCc2nc(-c3ccccc3)oc2C)cc1 | 84.1 µM |
